We go through 39 molecules from patent publication EP4660184A1 (Eurofarma Laboratórios S.A., priority 2023, dated 2024).

For experiment [1], the target named is T1, human sodium channels Nav 1.7 (Homo sapiens, UniProt Q15858).
T1 construct: expressed in transfected cells
The experiment can be described thus: Automated whole-cell voltage-clamp (ScreenPatch 384P) sodium current block, Nav 1.7. Format: cell-based. The conditions noted are these: CHO cells stably expressing human Nav 1.7; inactivation step -40 mV for 8 seconds, test step 0 mV (TP1A); exposure at least five minutes; room temperature; mean if two or more assays; read-out: Nav1.7 IC50. The method in brief:
(§1)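 CHO cells stably expressing human Nav1.7 or Nav1.8 were recorded by automated whole-cell clamp with ≥5 min compound exposure, eight concentrations, at room temperature, pH 7.4 external. From -100 mV, cells were held at -40 mV for 8 s, then -100 mV for 20 ms, then a test pulse at 10 mV (Nav1.8) or 0 mV (Nav1.7), at 0.05 Hz. Peak current % block was fitted to give IC50, averaged across assays.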

The target of experiment [2] is T2, human sodium channels Nav 1.8 (Homo sapiens, UniProt Q9Y5Y9).
T2 construct: expressed in transfected cells
T2 sequence (Q9Y5Y9 whole entry): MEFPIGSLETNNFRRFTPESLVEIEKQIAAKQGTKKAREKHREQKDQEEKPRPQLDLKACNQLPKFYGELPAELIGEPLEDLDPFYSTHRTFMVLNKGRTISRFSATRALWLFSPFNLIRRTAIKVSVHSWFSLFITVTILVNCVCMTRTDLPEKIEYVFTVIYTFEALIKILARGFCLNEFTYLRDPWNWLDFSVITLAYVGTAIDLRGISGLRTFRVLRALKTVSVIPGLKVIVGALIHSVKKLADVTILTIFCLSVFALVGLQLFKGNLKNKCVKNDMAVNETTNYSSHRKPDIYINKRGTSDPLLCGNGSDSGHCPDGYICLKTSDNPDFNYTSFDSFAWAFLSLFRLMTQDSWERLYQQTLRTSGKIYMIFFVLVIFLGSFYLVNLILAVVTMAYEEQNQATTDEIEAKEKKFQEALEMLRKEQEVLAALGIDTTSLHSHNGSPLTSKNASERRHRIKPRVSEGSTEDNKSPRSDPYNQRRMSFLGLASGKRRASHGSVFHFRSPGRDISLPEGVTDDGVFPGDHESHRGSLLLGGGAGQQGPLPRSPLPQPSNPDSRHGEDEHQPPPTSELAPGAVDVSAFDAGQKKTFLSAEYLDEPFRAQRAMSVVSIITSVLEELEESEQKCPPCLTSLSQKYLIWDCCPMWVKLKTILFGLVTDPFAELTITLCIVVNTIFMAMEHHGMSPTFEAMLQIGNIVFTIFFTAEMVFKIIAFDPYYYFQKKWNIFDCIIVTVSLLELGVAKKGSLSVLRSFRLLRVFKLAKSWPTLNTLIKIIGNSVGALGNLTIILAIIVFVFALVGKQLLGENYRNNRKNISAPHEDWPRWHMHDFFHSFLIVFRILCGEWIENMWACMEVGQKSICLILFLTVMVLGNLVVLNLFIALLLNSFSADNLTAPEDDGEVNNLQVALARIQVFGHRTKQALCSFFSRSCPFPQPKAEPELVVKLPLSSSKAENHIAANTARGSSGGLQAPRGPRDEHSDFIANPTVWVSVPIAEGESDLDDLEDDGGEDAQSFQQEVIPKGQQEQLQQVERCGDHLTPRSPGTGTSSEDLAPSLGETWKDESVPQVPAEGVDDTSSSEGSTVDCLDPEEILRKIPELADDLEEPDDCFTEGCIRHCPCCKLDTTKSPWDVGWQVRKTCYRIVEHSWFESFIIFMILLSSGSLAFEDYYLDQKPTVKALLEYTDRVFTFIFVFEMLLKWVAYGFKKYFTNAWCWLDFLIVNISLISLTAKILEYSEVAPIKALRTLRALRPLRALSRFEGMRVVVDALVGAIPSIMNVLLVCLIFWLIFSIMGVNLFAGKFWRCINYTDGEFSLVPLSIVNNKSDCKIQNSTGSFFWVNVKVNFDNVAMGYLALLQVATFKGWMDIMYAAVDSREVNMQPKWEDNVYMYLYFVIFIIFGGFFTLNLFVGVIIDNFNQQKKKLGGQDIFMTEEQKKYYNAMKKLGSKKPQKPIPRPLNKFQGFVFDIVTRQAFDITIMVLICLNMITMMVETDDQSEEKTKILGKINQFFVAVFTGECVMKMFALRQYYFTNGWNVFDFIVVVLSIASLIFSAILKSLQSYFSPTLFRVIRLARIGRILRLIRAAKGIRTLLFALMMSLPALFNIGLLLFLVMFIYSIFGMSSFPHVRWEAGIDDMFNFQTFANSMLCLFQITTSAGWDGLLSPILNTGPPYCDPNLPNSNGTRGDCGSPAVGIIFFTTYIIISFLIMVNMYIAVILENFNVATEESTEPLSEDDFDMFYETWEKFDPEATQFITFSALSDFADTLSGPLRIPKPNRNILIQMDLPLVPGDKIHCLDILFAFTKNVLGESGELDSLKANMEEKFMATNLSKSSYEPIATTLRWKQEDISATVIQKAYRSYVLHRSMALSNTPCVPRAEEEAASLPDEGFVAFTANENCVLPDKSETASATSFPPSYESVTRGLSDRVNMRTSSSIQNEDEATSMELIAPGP
Nature of the experiment: Automated whole-cell voltage-clamp (ScreenPatch 384P) sodium current block, Nav 1.8. Type of experiment: cell-based. To be noted: CHO cells stably expressing human Nav 1.8; inactivation step -40 mV for 8 seconds, test step 10 mV (TP1A); exposure at least five minutes; room temperature; mean if two or more assays; read-out: Nav1.8 IC50. The essentials:
as §1

T1 sequence (Q15858 whole entry): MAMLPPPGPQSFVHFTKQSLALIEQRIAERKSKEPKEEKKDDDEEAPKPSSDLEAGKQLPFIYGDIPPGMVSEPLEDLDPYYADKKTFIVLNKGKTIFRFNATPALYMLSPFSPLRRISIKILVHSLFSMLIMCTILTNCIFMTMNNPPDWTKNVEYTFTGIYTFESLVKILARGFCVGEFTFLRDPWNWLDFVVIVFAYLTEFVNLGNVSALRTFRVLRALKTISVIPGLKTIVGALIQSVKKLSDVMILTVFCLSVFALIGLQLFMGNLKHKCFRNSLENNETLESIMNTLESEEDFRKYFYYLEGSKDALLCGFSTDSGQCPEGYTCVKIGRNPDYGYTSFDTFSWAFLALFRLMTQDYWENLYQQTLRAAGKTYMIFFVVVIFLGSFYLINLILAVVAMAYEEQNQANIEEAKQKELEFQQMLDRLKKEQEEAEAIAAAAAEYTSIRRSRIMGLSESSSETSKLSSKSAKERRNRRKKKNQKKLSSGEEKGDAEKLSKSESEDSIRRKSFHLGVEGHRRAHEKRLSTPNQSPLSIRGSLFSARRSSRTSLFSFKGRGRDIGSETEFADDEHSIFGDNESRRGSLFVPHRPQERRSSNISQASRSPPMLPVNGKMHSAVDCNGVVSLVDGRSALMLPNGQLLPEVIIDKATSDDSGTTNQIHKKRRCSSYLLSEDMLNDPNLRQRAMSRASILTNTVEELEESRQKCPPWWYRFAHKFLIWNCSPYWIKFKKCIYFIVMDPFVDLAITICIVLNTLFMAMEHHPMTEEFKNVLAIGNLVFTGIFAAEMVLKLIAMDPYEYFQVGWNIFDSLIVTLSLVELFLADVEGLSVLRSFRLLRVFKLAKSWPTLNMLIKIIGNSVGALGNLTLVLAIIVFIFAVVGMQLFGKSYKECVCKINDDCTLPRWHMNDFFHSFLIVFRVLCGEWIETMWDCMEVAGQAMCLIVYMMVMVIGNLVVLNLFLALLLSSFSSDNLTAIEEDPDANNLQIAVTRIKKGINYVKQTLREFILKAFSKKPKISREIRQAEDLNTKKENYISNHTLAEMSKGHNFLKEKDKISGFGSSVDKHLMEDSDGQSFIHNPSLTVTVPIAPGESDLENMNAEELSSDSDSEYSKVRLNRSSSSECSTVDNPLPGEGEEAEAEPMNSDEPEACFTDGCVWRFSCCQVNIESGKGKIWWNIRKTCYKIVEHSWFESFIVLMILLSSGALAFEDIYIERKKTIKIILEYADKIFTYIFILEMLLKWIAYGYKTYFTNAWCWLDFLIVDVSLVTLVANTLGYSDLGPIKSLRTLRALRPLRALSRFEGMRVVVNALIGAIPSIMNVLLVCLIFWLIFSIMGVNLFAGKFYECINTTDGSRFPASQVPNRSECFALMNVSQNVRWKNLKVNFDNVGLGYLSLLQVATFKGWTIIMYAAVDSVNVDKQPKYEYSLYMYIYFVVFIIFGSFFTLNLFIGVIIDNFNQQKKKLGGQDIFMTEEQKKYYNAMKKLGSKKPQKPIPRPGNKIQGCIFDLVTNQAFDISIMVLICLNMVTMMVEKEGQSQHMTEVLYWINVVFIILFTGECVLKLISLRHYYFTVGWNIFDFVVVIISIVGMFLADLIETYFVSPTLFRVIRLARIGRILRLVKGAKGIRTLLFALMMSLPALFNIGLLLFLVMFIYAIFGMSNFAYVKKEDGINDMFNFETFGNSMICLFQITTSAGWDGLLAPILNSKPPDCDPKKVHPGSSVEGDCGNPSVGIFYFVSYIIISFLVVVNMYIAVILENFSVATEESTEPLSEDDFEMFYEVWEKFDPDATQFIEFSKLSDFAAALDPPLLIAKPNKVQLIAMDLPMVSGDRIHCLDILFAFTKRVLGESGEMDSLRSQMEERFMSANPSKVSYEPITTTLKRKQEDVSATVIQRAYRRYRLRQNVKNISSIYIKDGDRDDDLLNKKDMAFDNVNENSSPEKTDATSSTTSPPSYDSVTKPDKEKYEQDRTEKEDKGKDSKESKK

For the molecule `CCOc1ccc(-c2cncc(C(=O)NOCc3cc(OC)cnc3C)n2)cn1` [Compound 46, 6-(6-ethoxypyridine-3-yl)-N-((5-methoxy-2-methylpyridine-3-yl)methoxy)pyrazine-2-carboxamide], the IC50 in experiment [1] and in experiment [2] was greater than 1 µM in each case.

Turning to `CCOc1ccc(-c2cncc(C(=O)NOCc3cc(O)ccc3F)n2)cc1` [Compound 14, 6-(4-ethoxyphenyl)-N-((2-fluoro-5-hydroxybenzyl)oxy)pyrazine-2-carboxamide], the IC50 (as a rule, the concentration that gives 50% inhibition) in experiment [1] was greater than 1 µM; in experiment [2], less than 0.5 µM.

On to `CCOc1ccc(-c2cnc(F)c(C(=O)NOCc3cc(OC)ccc3F)n2)cn1` [Compound 105], for which the 50% inhibitory concentration (IC50) is greater than 1 µM in experiment [1] and 0.5 to 1 µM in experiment [2].

As for `CCOc1cc(C)c(-c2cncc(C(=O)NOCc3cc(OC)ccc3F)n2)cn1` [Compound 93], the half-maximal inhibitory concentration (IC50) in experiment [1] and in experiment [2] was greater than 1 µM each time.

Consider `CN(C)c1ccc(F)c(CONC(=O)c2cncc(-c3ccc(OC(F)F)nc3)n2)c1` [Compound 81], for which the half-maximal inhibitory concentration (IC50) in experiment [1] and in experiment [2] was greater than 1 µM throughout.

Take `CCOc1ccc(-c2nc(C(=O)NOCc3cc(OC)ccc3F)cnc2O)cn1` [Compound 100]: the IC50 in experiment [1] is greater than 1 µM; in experiment [2], less than 0.5 µM.

Take `CN(C)c1cnc(F)c(CONC(=O)c2cncc(-c3ccc(OC(F)F)nc3)n2)c1` [Compound 80]: the figures for the IC50 in experiment [1] and in experiment [2] were greater than 1 µM and 0.5 to 1 µM, respectively.

`CCOc1ccc(-c2cncc(C(=O)NOCc3cc(OC)ccc3F)n2)cn1` [Compound 37, 6-(6-ethoxypyridine-3-yl)-N-((2-fluoro-5-methoxybenzyl)oxy)pyrazine-2-carboxamide]: the IC50 in experiment [1] was greater than 1 µM; in experiment [2] it was less than 0.5 µM.

With `COc1ccc(F)c(CONC(=O)c2cncc(-c3ccc(OCCC4CNC4)cc3)n2)c1` [Compound 24, 6-(4-(2-(azetidine-3-yl)ethoxy)phenyl)-N-((2-fluoro-5-methoxybenzyl)oxy)pyrazine-2-carboxamide], the IC50 in experiment [1] and in experiment [2] was greater than 1 µM in each case.

Turning to `COc1ccc(F)c(CONC(=O)c2cncc(-c3ccc([S+](C)[O-])cc3)n2)c1` (stereo not drawn) [Compound 29, N-((2-fluoro-5-methoxybenzyl)oxy)-6-(4-(methylsulfinyl)phenyl)pyrazine-2-carboxamide], the IC50 in experiment [1] and in experiment [2] was greater than 1 µM in each case.

For `CCOc1ccc(-c2cncc(C(=O)NOCc3[nH]ccc3C#N)n2)cn1` [Compound 68], the IC50 in experiment [1] and in experiment [2] was greater than 1 µM throughout.

Take `CCOc1ccc(-c2cncc(C(=O)NOCc3ccnn3C)n2)cn1` [Compound 58]: the IC50 in experiment [1] and in experiment [2] was greater than 1 µM each time.

For the molecule `CCOc1ccc(-c2cncc(C(=O)NOCc3cncn3C(C)C)n2)cn1` [Compound 63], the IC50 in experiment [1] and in experiment [2] was greater than 1 µM in each case.

Consider `CCOc1ccc(-c2cncc(C(=O)NOCc3cc(OC)ccc3F)n2)cc1O` [Compound 89], for which the IC50 in experiment [1] was greater than 1 µM; in experiment [2] it was less than 0.5 µM.

As to `O=C(NOCc1ccccn1)c1cncc(-c2ccc(OC(F)(F)F)nc2)n1` [Compound 73], the IC50 in experiment [1] is greater than 1 µM; in experiment [2], less than 0.5 µM.

As for `COc1ccc(F)c(CONC(=O)c2cncc(-c3ccc(OC)nc3)n2)c1` [Compound 30, N-((2-fluoro-5-methoxybenzyl)oxy)-6-(6-methoxypyridine-3-yl)pyrazine-2-carboxamide], the figures for the IC50 in experiment [1] and in experiment [2] were greater than 1 µM and less than 0.5 µM, respectively.

For `CCOc1ccc(-c2cncc(C(=O)NOCc3cc(OC)ncc3F)n2)cc1` [Compound 13, 6-(4-ethoxyphenyl)-N-((5-fluoro-2-methoxypyridine-4-yl)methoxy)pyrazine-2-carboxamide], the IC50 was greater than 1 µM in experiment [1] and less than 0.5 µM in experiment [2].

`CCOc1ccc(-c2nc(C(=O)NOCc3cc(OC)cc(OC)c3)cnc2O)cc1` [Compound 96]: the IC50 in experiment [1] and in experiment [2] was less than 0.5 µM each time.

As for `CCOc1ccc(-c2cncc(C(=O)NOCc3cncc(OC)c3)n2)cc1` [Compound 8, 6-(4-ethoxyphenyl)-N-((5-methoxypyridine-3-yl)methoxy)pyrazine-2-carboxamide], the IC50 in experiment [1] and in experiment [2] was greater than 1 µM in each case.

As for `COc1ccc(F)c(CONC(=O)c2cncc(-c3ccc([S+](C)[O-])nc3)n2)c1` (stereo not drawn) [Compound 84], the values for the IC50 in experiment [1] and in experiment [2] were greater than 1 µM and less than 0.5 µM, respectively.

With `CCOc1ccc(-c2cncc(C(=O)NOCc3cccc(O)c3)n2)cc1` [Compound 7, 6-(4-ethoxyphenyl)-N-((3-hydroxybenzyl)oxy)pyrazine-2-carboxamide], the 50% inhibitory concentration (IC50) in experiment [1] and in experiment [2] was greater than 1 µM throughout.

Turning to `COc1ccc(F)c(CONC(=O)c2cncc(-c3ccc(OCC4CN(C)C4)cc3)n2)c1` [Compound 26, N-((2-fluoro-5-methoxybenzyl)oxy)-6-(4-((1-methylazetidine-3-yl)methoxy)phenyl)pyrazine-2-carboxamide], the IC50 in experiment [1] was 0.5 to 1 µM; in experiment [2], less than 0.5 µM.

In the case of `CCOc1ccc(-c2cncc(C(=O)NOCc3ocnc3C)n2)cn1` [Compound 65, 6-(6-ethoxypyridine-3-yl)-N-((4-methyloxazole-5-yl)methoxy)pyrazine-2-carboxamide], the IC50 in experiment [1] and in experiment [2] was greater than 1 µM throughout.

As for `CCOc1ccc(-c2cncc(C(=O)NOCc3cc(C)cc(C)c3)n2)cc1` [Compound 21, N-((3,5-dimethylbenzyl)oxy)-6-(4-ethoxyphenyl)pyrazine-2-carboxamide], the half-maximal inhibitory concentration (IC50) in experiment [1] and in experiment [2] was greater than 1 µM each time.

As for `CCOc1ccc(-c2cncc(C(=O)NOCc3cccc(OC)c3)n2)cn1` [Compound 33, 6-(6-ethoxypyridine-3-yl)-N-((3-methoxybenzyl)oxy)pyrazine-2-carboxamide], the results for the IC50 in experiment [1] and in experiment [2] were greater than 1 µM and less than 0.5 µM, respectively.

On to `CCOc1ccc(-c2cncc(C(=O)NOCc3cc(OC)ccc3Cl)n2)cc1` [Compound 11, N-((2-chloro-5-methoxybenzyl)oxy)-6-(4-ethoxyphenyl)pyrazine-2-carboxamide], for which the IC50 in experiment [1] is 0.5 to 1 µM; in experiment [2], less than 0.5 µM.

In the case of `[2H]C([2H])([2H])Oc1ccc(F)c(C([2H])([2H])ONC(=O)c2cncc(-c3ccc(OC([2H])([2H])C([2H])([2H])[2H])nc3)n2)c1` [Compound 54, 6-(6-(ethoxy-d5)pyridine-3-yl)-N-((2-fluoro-5-(methoxy-d3)phenyl)methoxy-d2)pyrazine-2-carboxamide], the IC50 in experiment [1] and in experiment [2] was greater than 1 µM throughout.

For the molecule `CCOc1ccc(-c2cncc(C(=O)NOCc3cc(OC)ccc3F)n2)cc1` [Compound 9, 6-(4-ethoxyphenyl)-N-((2-fluoro-5-methoxybenzyl)oxy)pyrazine-2-carboxamide], the IC50 is greater than 1 µM in experiment [1] and less than 0.5 µM in experiment [2].

Regarding `CCOc1ccc(-c2cncc(C(=O)NOCc3cc(C(C)N)ccc3F)n2)cn1` (stereo not drawn) [Compound 45, N-((5-(1-aminoethyl)-2-fluorobenzyl)oxy)-6-(6-ethoxypyridine-3-yl)pyrazine-2-carboxamide], the half-maximal inhibitory concentration (IC50) in experiment [1] and in experiment [2] was greater than 1 µM in each case.

Consider `CCOc1ccc(-c2cncc(C(=O)NOCc3cc(OC)ccc3F)n2)c(OC)n1` [Compound 94], for which the IC50 in experiment [1] and in experiment [2] was greater than 1 µM throughout.

For the molecule `COc1ccc(F)c(CONC(=O)c2cncc(-c3ccc(OCC4CNC4)cc3)n2)c1` [Compound 23, 6-(4-(azetidine-3-ylmethoxy)phenyl)-N-((2-fluoro-5-methoxybenzyl)oxy)pyrazine-2-carboxamide], the IC50 in experiment [1] and in experiment [2] was greater than 1 µM throughout.

On to `COc1ccc(F)c(CONC(=O)c2cncc(-c3ccc(OC(F)F)nc3)n2)c1` [Compound 77], for which the IC50 in experiment [1] and in experiment [2] was greater than 1 µM in each case.

Turning to `COc1ccc(F)c(CONC(=O)c2cccc(-c3ccc(OC(F)F)nc3)n2)c1` [Compound 115], the 50% inhibitory concentration (IC50) in experiment [1] and in experiment [2] was greater than 1 µM in each case.

In the case of `COc1ccc(F)c(CONC(=O)c2cnc(F)c(-c3ccc(OC(F)F)nc3)n2)c1` [Compound 124], the IC50 in experiment [1] and in experiment [2] was greater than 1 µM throughout.

`CCOc1ccc(-c2cncc(C(=O)NOCc3ccnn3CC)n2)cn1` [Compound 62, 6-(6-ethoxypyridine-3-yl)-N-((1-ethyl-1H-pyrazole-5-yl)methoxy)pyrazine-2-carboxamide]: the IC50 in experiment [1] and in experiment [2] was greater than 1 µM each time.

Turning to `COc1ccc(F)c(CONC(=O)c2cncc(-c3ccc(OC(F)F)cc3OC)n2)c1` [Compound 88], the IC50 in experiment [1] and in experiment [2] was greater than 1 µM each time.

For `[2H]C([2H])(C)Oc1ccc(-c2cncc(C(=O)NOCc3cc(OC)ccc3F)n2)cn1` [Compound 50, 6-(6-(ethoxy-1,1-d2)pyridine-3-yl)-N-((2-fluoro-5-methoxybenzyl)oxy)pyrazine-2-carboxamide], the IC50 in experiment [1] and in experiment [2] was greater than 1 µM each time.

For `CCOc1ccc(-c2cncc(C(=O)NOCc3cc(OC)ncc3F)n2)cn1` [Compound 39, 6-(6-ethoxypyridine-3-yl)-N-((5-fluoro-2-methoxypyridine-4-yl)methoxy)pyrazine-2-carboxamide], the IC50 is greater than 1 µM in experiment [1] and less than 0.5 µM in experiment [2].

Turning to `COc1ccc(-c2cncc(C(=O)NOCc3cc(OC)ccc3F)n2)cc1` [Compound 2, N-((2-fluoro-5-methoxybenzyl)oxy)-6-(4-methoxyphenyl)pyrazine-2-carboxamide], the values for the IC50 in experiment [1] and in experiment [2] were greater than 1 µM and less than 0.5 µM, respectively.
